In one assay the test system is THP1-Lucia cells. The assay can be described thus: NF-kB-induced luminescence assay in THP1-Lucia cells. The format is cell-based, human. Particulars: in comparison to positive control R848, N=4. On the procedure: THP-1 Cell Line and Culture Conditions. The THP1-Lucia™ cell line was obtained from Invivogen (San Diego, Calif.). THP1-Lucia cells, which are human monocytic cells derived from the blood of a child with leukemia, contain an NF-kB-inducible Luc reporter construct. This allows NF-kB activation to be measured by quantifying the luminescence from the secreted luciferase enzyme. THP1-Lucia cells were cultured in RPMI 1640 supplemented with 10% non-heat inactivated fetal bovine serum (FBS), 10 mM HEPES, 1.0 mM sodium pyruvate, 50 ug/ml Pen-Strep, and 100 ug/mL Normocin™. Once cultured, the cells were stored in a 37° C. incubator with 5% CO2 and a humidified atmosphere. Cells were passaged every 2-3 days and not allowed to exceed a concentration of 2.0×10^6 cells/ml media.
NF-kB-induced Luminescence Assay. THP1-Lucia cells between passage 15 and 18 and suspended in culture medium were dispensed into 384-well black clear-bottom plates (Corning 3712) at 30,000 cells/30 μl/well using a Combi liquid dispenser. […] Immediately after adding the substrate, the luminescence was read using a PerkinElmer Envision plate reader.

A further assay has as its system PBMCs. The experiment in a line: TNF AlphaLISA screen on primary human PBMCs. The note with it: robust Z score >2 in both duplicates and at least 2 of 3 donors. The format is cell-based. Here is the method: TNF AlphaLISA screen was comprised of three parts: 1) human peripheral blood collection and PBMC isolation—human adult peripheral blood was collected with written consent. PBMCs were isolated from the blood using Ficoll density gradient. PBMCs were stored at 50 million cells per vial in 1 ml RPMI containing 20% autologous plasma and 10% DMSO at −80° C. until use; 2) TNFαLISA Assay—On Day 1, PBMCs were thawed in 37° C. water bath for 3 min and washed twice with PBS. Trypan blue viable cell count was obtained and cells were resuspended to viable 6.67×10^5 cells/ml in DMEM with 10% autologous plasma. Cells were dispensed in 30 μl per well in Corning 2712 black 384-well cell culture plates (final concentration was 20,000 cells/well). Controls were added to cells manually and the test compounds were added by robotic pin transfer. Plates were then incubated at 37° C./5% CO2 humidity-controlled incubator for 18 hours. On Day 2 of the assay, plates were centrifuged and 2 μl supernatants were collected into Perkin Elmer Alpha plates. Perkin Elmer Human TNFα kits (cat #AL208F) were used to detect the presence of TNFα in supernatants.
TNFαLISA Assay. Human adult peripheral blood was collected according to approved protocols. […] Viability was assessed by trypan blue staining and cells were then resuspended to 6.67×10^5 viable cells/mL in DMEM with 10% autologous plasma. […]

The next assay concerns human adult PBMCs. The experiment in a line: 9-plex multiplex cytokine assay after stimulation of adult PBMCs. The note with it: 0.1 μM-33 μM, 18 hours, 10% autologous plasma, fold-change over unstimulated control, N=4. The format is cell-based. Here is the method: Shown is a 9-plex multiplex cytokine assay after stimulation of adult peripheral blood mononuclear cells (PBMCs) with compound 037 or R848 at four different concentrations (0.1 μM-33 μM). Radar plots of immune polarizing cytokine production from human adult PBMCs stimulated for 18 hours in 10% autologous plasma, represented as fold-change over RPMI unstimulated control (N=4).
(§1) ELISAs and Multiplex-Analyte Assays. Supernatants derived from human PBMCs and DC stimulations were assayed by ELISA for TNF (ThermoFisher Scientific; Waltham, Mass., USA). Cytokine and chemokine expression profiles (e.g., IFNγ, IL-9, IL-10, IL-12 (p70), IL-13, IL-1β, IL-23, IL-27, IL-28A, IL-33, IL-6, MIP-3α/CCL20, and TNF) in cell culture supernatants were measured using a customized Milliplex® Human Th17 Magnetic Bead Panel according to the manufacturer's instructions (Millipore, Chicago, Ill., USA). Assays were read and analyzed on the Luminex® 100/200™ System and xPOTENT® software (Luminex, Austin, Tex.). A minimum threshold was set at the minimum detectable concentration for each individual assay, defined as three standard deviations above the mean background.

Assay [1] concerns Human adult and elderly PBMCs. The assay can be described thus: Adult and elderly PBMCs stimulated with confirmed hit compounds, TNF and IL-1β by ELISA. It is filed as cell-based. Particulars: 18 hours, N=5. Here is the method:
(FIG. 2A) Human adult (top) and elderly (bottom) PBMCs stimulated for 18 hours with the TLR7/8 agonist R848 and 24 confirmed hit compounds from TNF AlphaLISA screen. TNF (left panels) and IL-1β (right panels) were assessed in cell-free supernatants by ELISA. Data are shown as median and interquartile range of N=5.
as §1

For `CCC(C(=O)Nc1cc(-c2cn3cccnc3n2)ccc1C)c1ccccc1` (stereo not shown) [Compound 37], the “NF-κB-driven expression of luciferase in THP1 cells (in words)” value in the assay on THP1-Lucia cells is recorded as “does not substantially activate THP1 cells”. Further, the “Hit in PBMC TNFαLISA screen (in words)” value with PBMCs is “identified in the PBMC TNFαLISA screen”. Further, the “Cytokine response, 9-plex multiplex (in words)” value in the assay with human adult PBMCs was “induced a broad concentration-dependent cytokine response”. For the same compound, the “TNF and IL-1β induction from adult and elderly PBMCs (in words)” value in assay [1] is “induce TNF and IL-1β from adult and elderly PBMCs”.

The values above are taken from patent US11673891B2, “Imidazopyrimidine compounds and uses thereof” (Dana-Farber Cancer Institute, Inc., priority 2017, dated 2023).
